Reference: PubChem BioAssay (NCI)
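GI50 marks 50% less growth. TGI: concentration producing complete growth inhibition.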

Experiments:
Test in all cases: DTP human tumour cell line panel, 384-well format
786-0 renal = tested on: 786-0 renal
A498 renal = tested on: A498 renal
A549 NSCLC = tested on: A549 NSCLC
ACHN renal = tested on: ACHN renal
BT-549 breast = tested on: BT-549 breast
CAKI-1 renal = tested on: CAKI-1 renal
CCRF-CEM leukemia = tested on: CCRF-CEM leukemia
COLO 205 colon = tested on: COLO 205 colon
DU-145 prostate = tested on: DU-145 prostate
EKVX NSCLC = tested on: EKVX NSCLC
HCT-116 colon = tested on: HCT-116 colon
HCT-15 colon = tested on: HCT-15 colon
HL-60(TB) leukemia = tested on: HL-60(TB) leukemia
HOP-62 NSCLC = tested on: HOP-62 NSCLC
HOP-92 NSCLC = tested on: HOP-92 NSCLC
HS 578T breast = tested on: HS 578T breast
HT29 colon = tested on: HT29 colon
IGROV1 ovarian = tested on: IGROV1 ovarian
KM12 colon = tested on: KM12 colon
LOX IMVI melanoma = tested on: LOX IMVI melanoma
M14 melanoma = tested on: M14 melanoma
MALME-3M melanoma = tested on: MALME-3M melanoma
MCF7 breast = tested on: MCF7 breast
MDA-MB-231 breast = tested on: MDA-MB-231 breast
MDA-MB-435 melanoma = tested on: MDA-MB-435 melanoma
MDA-MB-468 breast = tested on: MDA-MB-468 breast
MOLT-4 leukemia = tested on: MOLT-4 leukemia
NCI-H226 lung = tested on: NCI-H226 lung
NCI-H23 lung = tested on: NCI-H23 lung
NCI-H322M lung = tested on: NCI-H322M lung
NCI-H460 NSCLC = tested on: NCI-H460 NSCLC
NCI-H522 lung = tested on: NCI-H522 lung
OVCAR-3 ovarian = tested on: OVCAR-3 ovarian
OVCAR-4 ovarian = tested on: OVCAR-4 ovarian
OVCAR-5 ovarian = tested on: OVCAR-5 ovarian
OVCAR-8 ovarian = tested on: OVCAR-8 ovarian
PC-3 prostate = tested on: PC-3 prostate
RPMI-8226 leukemia = tested on: RPMI-8226 leukemia
RXF 393 renal = tested on: RXF 393 renal
SF-268 CNS = tested on: SF-268 CNS
SF-295 CNS = tested on: SF-295 CNS
SF-539 CNS = tested on: SF-539 CNS
SK-MEL-28 melanoma = tested on: SK-MEL-28 melanoma
SK-MEL-5 melanoma = tested on: SK-MEL-5 melanoma
SK-OV-3 ovarian = tested on: SK-OV-3 ovarian
SN12C renal = tested on: SN12C renal
SNB-19 CNS = tested on: SNB-19 CNS
SNB-75 CNS = tested on: SNB-75 CNS
SR leukemia = tested on: SR leukemia
SW-620 colon = tested on: SW-620 colon
T-47D breast = tested on: T-47D breast
TK-10 renal = tested on: TK-10 renal
U251 glioblastoma = tested on: U251 glioblastoma
UACC-257 melanoma = tested on: UACC-257 melanoma
UACC-62 melanoma = tested on: UACC-62 melanoma
UO-31 renal = tested on: UO-31 renal

With `COc1cc2c(cc1O)CCN[C@]21CS[C@@H]2c3c(OC(C)=O)c(C)c4c(c3[C@H](COC1=O)N1[C@@H]2[C@H]2c3c(cc(C)c(OC)c3O)C[C@@H]([C@@H]1O)N2C)OCO4` the GI50 (786-0 renal) was 0.0975 nM, the TGI (786-0 renal) was 0.568 nM and the GI50 (A498 renal) was 1.18 nM. For the same compound, the TGI (A498 renal) was 2.61 nM, the GI50 (A549 NSCLC) was 0.868 nM and the TGI (A549 NSCLC) was 2.37 nM. For the same compound, the GI50 (ACHN renal) was 0.685 nM, the TGI (ACHN renal) was 2.24 nM and the GI50 (BT-549 breast) was 0.0545 nM. It also gave a TGI (BT-549 breast) of 0.124 nM, a GI50 (CAKI-1 renal) of 0.497 nM and a TGI (CAKI-1 renal) of 4.25 nM. The GI50 (CCRF-CEM leukemia) was 0.0203 nM, the TGI (CCRF-CEM leukemia) was 0.0389 nM and the GI50 (COLO 205 colon) was 0.433 nM. For the same compound, the TGI (COLO 205 colon) was 0.882 nM, the GI50 (DU-145 prostate) was 0.31 nM and the TGI (DU-145 prostate) was 0.84 nM. The GI50 (EKVX NSCLC) was 0.583 nM, the TGI (EKVX NSCLC) was 1.28 nM and the GI50 (HCT-116 colon) was 0.653 nM. For the same compound, the GI50 (HCT-15 colon) was 0.595 nM, the TGI (HCT-15 colon) was 5.24 nM and the GI50 (HL-60(TB) leukemia) was 0.0567 nM. The TGI (HL-60(TB) leukemia) was 0.105 nM, the GI50 (HOP-62 NSCLC) was 0.0657 nM and the TGI (HOP-62 NSCLC) was 0.177 nM. It also gave a GI50 (HOP-92 NSCLC) of 0.0211 nM, a TGI (HOP-92 NSCLC) of 0.0954 nM and a GI50 (HS 578T breast) of 0.175 nM. For the same compound, the TGI (HS 578T breast) was 0.555 nM, the GI50 (HT29 colon) was 0.117 nM and the TGI (HT29 colon) was 0.245 nM. The GI50 (IGROV1 ovarian) was 0.885 nM, the TGI (IGROV1 ovarian) was 8.12 nM and the GI50 (KM12 colon) was 1.4 nM. The TGI (KM12 colon) was 3.58 nM, the GI50 (LOX IMVI melanoma) was 0.0744 nM and the TGI (LOX IMVI melanoma) was 0.234 nM. For the same compound, the GI50 (M14 melanoma) was 0.0865 nM, the TGI (M14 melanoma) was 0.237 nM and the GI50 (MALME-3M melanoma) was 0.136 nM. For the same compound, the TGI (MALME-3M melanoma) was 0.37 nM, the GI50 (MCF7 breast) was 0.447 nM and the TGI (MCF7 breast) was 5.54 nM. The GI50 (MDA-MB-231 breast) was 1 nM, the TGI (MDA-MB-231 breast) was 2.56 nM and the GI50 (MDA-MB-435 melanoma) was 0.614 nM. For the same compound, the TGI (MDA-MB-435 melanoma) was 1.09 nM, the GI50 (MDA-MB-468 breast) was 0.0656 nM and the TGI (MDA-MB-468 breast) was 0.147 nM. It also gave a GI50 (MOLT-4 leukemia) of 0.0228 nM, a TGI (MOLT-4 leukemia) of 0.0638 nM and a GI50 (NCI-H226 lung) of 0.0901 nM. The TGI (NCI-H226 lung) was 0.359 nM, the GI50 (NCI-H23 lung) was 0.0949 nM and the TGI (NCI-H23 lung) was 0.309 nM. For the same compound, the GI50 (NCI-H322M lung) was 0.481 nM, the TGI (NCI-H322M lung) was 1.03 nM and the GI50 (NCI-H460 NSCLC) was 0.112 nM. For the same compound, the TGI (NCI-H460 NSCLC) was 0.454 nM, the GI50 (NCI-H522 lung) was 0.11 nM and the TGI (NCI-H522 lung) was 0.447 nM. For the same compound, the GI50 (OVCAR-3 ovarian) was 0.227 nM, the TGI (OVCAR-3 ovarian) was 0.698 nM and the GI50 (OVCAR-4 ovarian) was 2.77 nM. For the same compound, the TGI (OVCAR-4 ovarian) was 5.98 nM, the GI50 (OVCAR-5 ovarian) was 0.983 nM and the TGI (OVCAR-5 ovarian) was 9.36 nM. It also gave a GI50 (OVCAR-8 ovarian) of 0.169 nM, a TGI (OVCAR-8 ovarian) of 0.555 nM and a GI50 (PC-3 prostate) of 0.396 nM. For the same compound, the TGI (PC-3 prostate) was 1.54 nM, the GI50 (RPMI-8226 leukemia) was 0.0686 nM and the TGI (RPMI-8226 leukemia) was 0.153 nM. For the same compound, the GI50 (RXF 393 renal) was 0.0747 nM, the TGI (RXF 393 renal) was 0.209 nM and the GI50 (SF-268 CNS) was 0.121 nM. For the same compound, the TGI (SF-268 CNS) was 0.542 nM, the GI50 (SF-295 CNS) was 0.0877 nM and the TGI (SF-295 CNS) was 0.299 nM. For the same compound, the GI50 (SF-539 CNS) was 0.0765 nM, the TGI (SF-539 CNS) was 0.185 nM and the GI50 (SK-MEL-28 melanoma) was 0.459 nM. The TGI (SK-MEL-28 melanoma) was 0.888 nM, the GI50 (SK-MEL-5 melanoma) was 0.0992 nM and the TGI (SK-MEL-5 melanoma) was 0.345 nM. For the same compound, the GI50 (SK-OV-3 ovarian) was 2.22 nM, the TGI (SK-OV-3 ovarian) was 7.34 nM and the GI50 (SN12C renal) was 0.133 nM. The TGI (SN12C renal) was 0.715 nM, the GI50 (SNB-19 CNS) was 0.84 nM and the GI50 (SNB-75 CNS) was 0.0952 nM. The TGI (SNB-75 CNS) was 0.329 nM, the GI50 (SR leukemia) was 0.0313 nM and the TGI (SR leukemia) was 0.0728 nM. For the same compound, the GI50 (SW-620 colon) was 1.61 nM, the TGI (SW-620 colon) was 3.49 nM and the GI50 (T-47D breast) was 0.482 nM. It also gave a TGI (T-47D breast) of 2.33 nM, a GI50 (TK-10 renal) of 2.48 nM and a TGI (TK-10 renal) of 6 nM. The GI50 (U251 glioblastoma) was 0.17 nM, the TGI (U251 glioblastoma) was 0.842 nM and the GI50 (UACC-257 melanoma) was 0.546 nM. For the same compound, the TGI (UACC-257 melanoma) was 0.987 nM, the GI50 (UACC-62 melanoma) was 0.099 nM and the TGI (UACC-62 melanoma) was 0.371 nM. It also gave a GI50 (UO-31 renal) of 0.514 nM and a TGI (UO-31 renal) of 0.962 nM.
